Results: patent US20200000917A1, “METHODS OF PHOTOCHEMICAL TREATMENT FOR WOUND HEALING” (The General Hospital Corporation, priority 2017, published 2020)

Legend:
[1] = system: full-thickness, excisional 1 cm by 1 cm wounds on the dorsa of C57BL/6 mice; assay: Wound contracture after photochemical treatment (area within tattooed wound perimeter); type: in vivo
Experimental: (§1) By way of example, the above-described system 20 and method 10 were studied in comparison to untreated control wounds. The study was carried out according to the steps illustrated in FIG. 3. Generally, FIG. 3 illustrates a wound creation step 30, an activating agent delivery step 32, an illumination step 34, and a post-treatment step 36. More specifically, at step 30, full-thickness, excisional 1 cm by 1 cm wounds 38 were created on the dorsa of C57BL/6 mice 40 in both a control group of 16 mice and a test group of 16 mice. Additionally, dots 42 were tattooed on the skin around the wound perimeter in both the control and test groups (as shown in step 34) in order to monitor contracture over the course of wound healing. Following step 30, control group wounds were left alone to heal. With respect to the test group, at step 32, a Rose Bengal solution was painted onto wound beds 38 (e.g., as discussed above with respect to process block 12 of FIG. 1). At step 34, the wounds 38 were illuminated by an electromagnetic radiation source 26, in particular, a KTP laser having a 532-nanometer wavelength, with an energy output of 60 Joules per centimeter squared (e.g., as discussed above with respect to process block 14 of FIG. 1). Steps 32 and 34 were conducted immediately after wound creation at step 30. Step 36 illustrates the immediate result of wound treatment, that is, the photobleaching of Rose Bengal dye.
To compare the test and control groups, the area within each tattooed wound perimeter was serially measured over 6 weeks and percent contracture was calculated. Additionally, at 7, 14, 21, and 42 days, mice were euthanized and tissue was harvested for histology.

[2] = system: full-thickness, excisional 1 cm by 1 cm wounds on the dorsa of C57BL/6 mice; assay: Histology of harvested wound tissue after photochemical treatment; type: in vivo; conditions: days 7, 21 and 42 post wound creation; Rose Bengal solution + KTP laser 532 nm, 60 J/cm2
Experimental: as §1, with “Steps 32 and 34 were conducted immediately after wound creation at step 30. Step 36 illustrates the immediate result of wound treatment, that is, the photobleaching of Rose Bengal dye.” left out
To compare the test and control groups, the area within each tattooed wound perimeter was serially measured over 6 weeks and percent contracture was calculated. […]

O=C([O-])c1c(Cl)c(Cl)c(Cl)c(Cl)c1-c1c2cc(I)c(=O)c(I)c-2oc2c(I)c([O-])c(I)cc12.[Na+].[Na+] [Rose Bengal]
more contracture in control wounds than in test group ([1]; by day 7): ~20%
percent contracture ([1]; day 7, Rose Bengal solution painted on wound bed, KTP laser 532 nm, 60 J/cm2, immediately after wound creation, control 80.3±8.5%, p=0.014): 67.1±17.1%
wounds contracted to (percentage of initial area of skin around wound perimeter) ([1]; day 42, Rose Bengal solution + KTP laser 532 nm, 60 J/cm2, control 13.6±5.6%, p=0.003): 35.2±2.9%
fold difference in remaining area, test group versus control group ([1]; day 42, p=0.003): 1.59 fold
histological review of wound tissue compared to control group tissue [2]: increased ingrowth and development of dermal cells, increased vascularity, and appearance of skin appendages earlier and to a greater degree
